Data reported in patent publication US8461328B2, “Tricyclic heterocyclic compounds, compositions and methods of use thereof” (Genentech, Inc., priority 2010, dated 2013).
Read-outs that look alike come from different tables or passages of the source.

Legend:
Type in all cases: biochemical
JAK1 = biological target: T1, JAK1 (Homo sapiens, UniProt P23458); experiment: JAK1 inhibition (Table 4)
T1 construct: made in house; host or cells: SF9 insect cells (baculovirus)

JAK2 = biological target: T2, JAK2 (Homo sapiens, UniProt O60674); experiment: JAK2 inhibition (Table 4); conditions: read-out: JAK2 Ki
T2 construct: made in house; host or cells: SF9 insect cells (baculovirus)

JAK3 = biological target: T3, JAK3 (Homo sapiens, UniProt P52333); experiment: JAK3 inhibition (Table 4)
T3 construct: made in house; host or cells: SF9 insect cells (baculovirus)

TYK2 = biological target: T4, TYK2 (Homo sapiens, UniProt P29597); experiment: TYK2 inhibition (Table 4)
T4 construct: made in house; host or cells: SF9 insect cells (baculovirus)
T4 sequence (P29597 873-1187): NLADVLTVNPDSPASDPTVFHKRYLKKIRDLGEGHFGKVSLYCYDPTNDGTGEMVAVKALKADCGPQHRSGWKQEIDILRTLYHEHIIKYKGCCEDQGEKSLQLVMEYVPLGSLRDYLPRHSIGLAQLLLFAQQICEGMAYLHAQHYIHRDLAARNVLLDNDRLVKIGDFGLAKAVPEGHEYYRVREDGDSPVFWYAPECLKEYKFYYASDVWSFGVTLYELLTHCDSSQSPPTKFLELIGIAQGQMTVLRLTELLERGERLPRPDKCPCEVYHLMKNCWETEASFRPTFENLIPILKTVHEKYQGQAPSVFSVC

T2 sequence (O60674 812-1132): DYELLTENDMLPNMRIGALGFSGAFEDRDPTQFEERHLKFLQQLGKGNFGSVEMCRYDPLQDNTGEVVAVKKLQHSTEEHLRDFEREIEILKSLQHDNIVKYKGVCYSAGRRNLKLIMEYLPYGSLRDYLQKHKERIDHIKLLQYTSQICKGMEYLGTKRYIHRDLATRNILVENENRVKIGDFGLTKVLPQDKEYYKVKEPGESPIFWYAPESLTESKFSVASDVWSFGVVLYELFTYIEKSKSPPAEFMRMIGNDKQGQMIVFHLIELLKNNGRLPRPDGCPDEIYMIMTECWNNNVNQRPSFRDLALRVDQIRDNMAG
T3 sequence (P52333 783-1124): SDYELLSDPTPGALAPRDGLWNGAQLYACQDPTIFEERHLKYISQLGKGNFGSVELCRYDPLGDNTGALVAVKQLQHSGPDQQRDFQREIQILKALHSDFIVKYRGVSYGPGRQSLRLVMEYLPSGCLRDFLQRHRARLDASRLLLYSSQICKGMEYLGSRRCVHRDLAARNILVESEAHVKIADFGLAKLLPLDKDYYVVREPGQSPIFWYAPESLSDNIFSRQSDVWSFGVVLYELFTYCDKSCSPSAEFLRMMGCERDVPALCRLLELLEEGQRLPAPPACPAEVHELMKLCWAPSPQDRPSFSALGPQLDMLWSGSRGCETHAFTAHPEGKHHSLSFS
T1 sequence (P23458 852-1154): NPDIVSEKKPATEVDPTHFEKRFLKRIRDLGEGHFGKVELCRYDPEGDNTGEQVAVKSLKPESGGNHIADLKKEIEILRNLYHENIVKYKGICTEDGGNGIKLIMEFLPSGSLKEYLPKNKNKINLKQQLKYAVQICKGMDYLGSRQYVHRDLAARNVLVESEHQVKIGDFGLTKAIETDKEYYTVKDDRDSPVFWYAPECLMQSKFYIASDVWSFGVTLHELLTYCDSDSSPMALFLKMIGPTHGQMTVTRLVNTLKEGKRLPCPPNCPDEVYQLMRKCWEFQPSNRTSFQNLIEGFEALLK

SMILES	Ki (JAK1; read-out: JAK1 Ki)	Ki (JAK2)	Ki (JAK3; read-out: JAK3 Ki)	Ki (TYK2)	Ki (JAK1; JAK1 Ki)	Ki (JAK3; JAK3 Ki)
c1cc2c(ncc3ncn([C@H]4[C@@H]5CNC[C@@H]54)c32)[nH]1 [Example 944, (1R,5S,6S)-1-(3-Aza-bicyclo[3.1.0]hex-6-yl)-1,6-dihydro-1,3,5,6-tetraaza-as-indacene]	229 nM	886 nM	2440 nM	1810 nM		
CC(C)(C#N)C(=O)N1CCC(n2cnc3cnc4[nH]ccc4c32)CC1 [Example 451, 2,2-Dimethyl-3-oxo-3-[4-(6H-1,3,5,6-tetraaza-as-indacen-1-yl)-piperidin-1-yl]-propionitrile]	36.6 nM	36.1 nM	428 nM	325 nM		
CC(O)c1nc2cnc3[nH]ccc3c2n1C1CCN(Cc2ccnc(C#N)c2)CC1 (racemic) [Example 350, 4-{4-[2-(1-Hydroxy-ethyl)-6H-1,3,5,6-tetraaza-as-indacen-1-yl]-piperidin-1-ylmethyl}-pyridine-2-carbonitrile]	6.44 nM	50.4 nM	178 nM	269 nM		
Fc1cccc(CN2CCC[C@@H](n3cnc4cnc5[nH]ccc5c43)C2)c1 [Example 47, 1-[(R)-1-(3-Fluoro-benzyl)-piperidin-3-yl]-1,6-dihydro-1,3,5,6-tetraaza-as-indacene]	13.1 nM	28.9 nM	52.2 nM	101 nM		
O=C(Cc1nc2cnc3[nH]ccc3c2n1C1CCCOC1)N1CCS(=O)(=O)CC1 (racemic) [Example 979, 1-(1,1-Dioxo-1$1%6&-thiomorpholin-4-yl)-2-[1-(tetrahydro-pyran-3-yl)-1,6-dihydro-1,3,5,6-tetraaza-as-indacen-2-yl]-ethanone]	15.5 nM	238 nM	127 nM	113 nM		
CN1CCCCCC1C(=O)N1CCC(n2cnc3cnc4[nH]ccc4c32)CC1 (racemic) [Example 953, (1-Methyl-azepan-2-yl)-[4-(6H-1,3,5,6-tetraaza-as-indacen-1-yl)-piperidin-1-yl]-methanone]	45.7 nM	455 nM	3480 nM	1830 nM		
CC(O)c1nc2cnc3[nH]ccc3c2n1C1CCN(Cc2ccccc2)CC1 (racemic) [Example 157, Racemic 1-[1-(1-Benzyl-piperidin-4-yl)-1,6-dihydro-1,2,3,5,6-tetraaza-as-indacen-2-yl]-ethanol]	3.59 nM	25.1 nM	34 nM	207 nM		
CCOC(=O)NCCc1nc2cnc3[nH]ccc3c2n1C1CCN(CC)CC1(F)F (stereo not drawn) [Example 678, {2-[1-(1-Ethyl-3,3-difluoro-piperidin-4-yl)-1,6-dihydro-1,2,3,5,6-tetraaza-as-indacen-2-yl]-ethyl}-carbamic acid ethyl ester]	3.95 nM	31.8 nM	23.6 nM	276 nM		
CC(C)(C)OC(=O)N1CCC(n2cnc3cnc4[nH]ccc4c32)CC1 [Example 124, 4-(6H-1,2,3,5,6-Tetraaza-as-indacen-1-yl)-piperidine-1-carboxylic acid tert-butyl ester]	24.5 nM	33.2 nM	845 nM	225 nM		

Other lines, results leading:

Ki (JAK1; read-out: JAK1 Ki)	Ki (JAK2)	Ki (JAK3; read-out: JAK3 Ki)	Ki (TYK2)	Ki (JAK1; JAK1 Ki)	Ki (JAK3; JAK3 Ki)	SMILES
62.7 nM	67.4 nM	59.2 nM	114 nM			CS(=O)(=O)N1CC[C@@H](n2cnc3cnc4[nH]ccc4c32)C1 [Example 190, 1-((R)-1-Methanesulfonyl-pyrrolidin-3-yl)-1,6-dihydro-1,2,3,5,6-tetraaza-as-indacene]
82.6 nM	384 nM	179 nM	274 nM			C[C@H](O)c1nc2cnc3[nH]ccc3c2n1C1CCOCC1 [Example 543, (S)-1-[1-(Tetrahydro-pyran-4-yl)-1,6-dihydro-1,3,5,6-tetraaza-as-indacen-2-yl]-ethanol]
1.09 nM	4.04 nM	14.2 nM	13.4 nM			Cc1nc2cnc3[nH]ccc3c2n1C1CCC(NS(C)(=O)=O)C1 (racemic) [Example 721, N-[3-(2-methyl-6H-1,3,5,6-tetraaza-as-indacen-1-yl)-cyclopentyl]-methanesulfonamide]
17.7 nM	95.7 nM	54.1 nM	72.5 nM			O=C(NCc1nc2cnc3[nH]ccc3c2n1C1CCCCC1)C1CCC1 [Example 924, Cyclobutanecarboxylic acid (1-cyclohyl-1,6-dihydro-1,3,5,6-tetraaza-as-indacen-2-ylmethyl)-amide]
	0.96 nM		0.51 nM	0.27 nM	5.26 nM	N#CCC1CCC(n2c(CO)nc3cnc4[nH]ccc4c32)CC1 (mixture of isomers) [Example 643, [4-(2-Hydroxymethyl-6H-1,2,3,5,6-tetraaza-as-indacen-1-yl)-cyclohexyl]-acetonitrile]
82.4 nM	1080 nM	822 nM	814 nM			C[C@@H](O)c1nc2cnc3[nH]ccc3c2n1[C@@H]1CCCN(C(=O)CC2CC2)C1 [Example 791, 2-Cyclopropyl-1-{(R)-3-[2-((R)-1-hydroxy-ethyl)-6H-1,3,5,6-tetraaza-as-indacen-1-yl]-piperidin-1-yl}-ethanone]
30 nM	252 nM	555 nM	338 nM			CS(=O)(=O)NCc1nc2cnc3[nH]ccc3c2n1C1CC2CCC1O2 (stereo not drawn) [Example 925, N-[1-(7-Oxa-bicyclo[2.2.1]hept-2-yl)-1,6-dihydro-1,3,5,6-tetraaza-as-indacen-2-ylmethyl]-methanesulfonamide]
27.6 nM	113 nM	89.1 nM	194 nM			O=C(Cc1nc2cnc3[nH]ccc3c2n1C1CCCOC1)NC1CCC(F)(F)CC1 (racemic) [Example 972, N-(4,4-Difluoro-cyclohexyl)-2-[1-(tetrahydro-pyran-3-yl)-1,6-dihydro-1,3,5,6-tetraaza-as-indacen-2-yl]-acetamide]
83.3 nM	125 nM	527 nM	425 nM			CC(=O)NC1CCCC(n2cnc3cnc4[nH]ccc4c32)C1 (single isomer, unassigned) [Example 478, N-[3-(6H-1,3,5,6-Tetraaza-as-indacen-1-yl)-cyclohexyl]-acetamide]
0.88 nM	24.7 nM	1.31 nM	5.28 nM			C[C@@H](O)c1nc2cnc3[nH]ccc3c2n1[C@H]1CC[C@@H](n2cncn2)CC1 [Example 653, Cis (R)-1-[1-(4-[1,2,4]triazol-1-yl-cyclohexyl)-1,6-dihydro-1,2,3,5,6-tetraaza-as-indacen-2-yl]-ethanol]
12.2 nM	74.9 nM	191 nM	55.5 nM			OCc1nc2cnc3[nH]ccc3c2n1C1CCCOC1 (single isomer, unassigned) [Example 463, [1-(Tetrahydro-pyran-3-yl)-1,6-dihydro-1,3,5,6-tetraaza-as-indacen-2-yl]-methanol]
22.2 nM	171 nM	84.8 nM	179 nM			C[C@@H](O)c1nc2cnc3[nH]ccc3c2n1C1CCN(Cc2cncn2C)CC1 [Example 823, (R)-1-{1-[1-(3-Methyl-3H-imidazol-4-ylmethyl)-piperidin-4-yl]-1,6-dihydro-1,3,5,6-tetraaza-as-indacen-2-yl}-ethanol]
